Experimental data reported in article PMC5373689 (Science (New York, N.Y.), 2016).

Legend:
[1] = biological target: CatSper (Homo sapiens, UniProt Q7RTX7+Q86XQ3+Q8NEC5+Q96P56); assay: whole-cell patch clamp of human spermatozoa; format: cell-based
[2] = biological target: T1, α/β hydrolase domain–containing protein 2 (ABHD2) (Homo sapiens, UniProt P08910); assay: monoacylglycerol hydrolysis by recombinant ABHD2; format: cell-based
T1 sequence (P08910 1-425): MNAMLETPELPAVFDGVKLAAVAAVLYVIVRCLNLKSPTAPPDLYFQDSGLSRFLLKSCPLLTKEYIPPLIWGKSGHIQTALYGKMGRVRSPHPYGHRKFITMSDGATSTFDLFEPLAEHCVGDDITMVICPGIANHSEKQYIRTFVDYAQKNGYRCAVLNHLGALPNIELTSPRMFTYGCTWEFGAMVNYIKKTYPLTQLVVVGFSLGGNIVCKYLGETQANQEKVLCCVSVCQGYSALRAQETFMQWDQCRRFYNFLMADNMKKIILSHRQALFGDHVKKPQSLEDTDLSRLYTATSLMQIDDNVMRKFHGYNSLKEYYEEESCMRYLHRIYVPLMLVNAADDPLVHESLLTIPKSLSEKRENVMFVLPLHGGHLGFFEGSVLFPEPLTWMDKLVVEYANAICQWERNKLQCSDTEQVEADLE

Sequence of CatSper (Q8NEC5 whole entry, the tested form may be a part): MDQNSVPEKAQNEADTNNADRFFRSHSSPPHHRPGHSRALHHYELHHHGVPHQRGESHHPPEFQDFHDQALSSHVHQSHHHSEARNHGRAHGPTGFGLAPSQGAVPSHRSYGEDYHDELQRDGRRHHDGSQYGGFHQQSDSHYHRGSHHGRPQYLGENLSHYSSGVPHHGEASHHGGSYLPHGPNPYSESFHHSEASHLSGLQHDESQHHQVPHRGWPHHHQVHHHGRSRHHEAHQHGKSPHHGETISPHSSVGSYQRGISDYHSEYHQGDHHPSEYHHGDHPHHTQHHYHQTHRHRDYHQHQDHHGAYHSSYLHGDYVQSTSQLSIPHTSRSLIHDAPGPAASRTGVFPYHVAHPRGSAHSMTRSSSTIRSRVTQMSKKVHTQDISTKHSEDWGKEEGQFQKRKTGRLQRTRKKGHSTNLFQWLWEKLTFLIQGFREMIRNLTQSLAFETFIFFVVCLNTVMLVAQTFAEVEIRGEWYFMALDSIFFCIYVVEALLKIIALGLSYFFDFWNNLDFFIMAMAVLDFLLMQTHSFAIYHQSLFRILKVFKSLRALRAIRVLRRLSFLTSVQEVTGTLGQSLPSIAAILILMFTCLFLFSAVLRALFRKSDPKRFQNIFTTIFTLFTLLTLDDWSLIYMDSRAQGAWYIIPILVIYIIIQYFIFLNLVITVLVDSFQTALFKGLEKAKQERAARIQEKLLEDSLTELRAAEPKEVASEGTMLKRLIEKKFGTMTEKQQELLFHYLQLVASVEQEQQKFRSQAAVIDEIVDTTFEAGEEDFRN
Sequence of CatSper (Q96P56 whole entry, the tested form may be a part): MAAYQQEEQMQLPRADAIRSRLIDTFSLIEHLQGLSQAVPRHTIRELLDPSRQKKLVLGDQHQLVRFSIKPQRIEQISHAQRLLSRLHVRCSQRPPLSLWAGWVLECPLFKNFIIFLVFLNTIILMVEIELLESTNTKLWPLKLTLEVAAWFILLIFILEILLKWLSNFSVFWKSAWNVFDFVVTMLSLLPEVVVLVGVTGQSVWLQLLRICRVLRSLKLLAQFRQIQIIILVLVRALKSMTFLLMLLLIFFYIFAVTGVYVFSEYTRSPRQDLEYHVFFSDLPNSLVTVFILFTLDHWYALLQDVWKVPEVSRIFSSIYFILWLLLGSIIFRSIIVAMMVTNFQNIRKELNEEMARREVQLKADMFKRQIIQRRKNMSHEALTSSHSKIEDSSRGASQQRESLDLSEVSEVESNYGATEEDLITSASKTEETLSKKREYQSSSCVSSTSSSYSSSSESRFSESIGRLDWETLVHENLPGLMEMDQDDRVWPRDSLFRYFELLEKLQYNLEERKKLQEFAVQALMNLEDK
Sequence of CatSper (Q86XQ3 whole entry, the tested form may be a part): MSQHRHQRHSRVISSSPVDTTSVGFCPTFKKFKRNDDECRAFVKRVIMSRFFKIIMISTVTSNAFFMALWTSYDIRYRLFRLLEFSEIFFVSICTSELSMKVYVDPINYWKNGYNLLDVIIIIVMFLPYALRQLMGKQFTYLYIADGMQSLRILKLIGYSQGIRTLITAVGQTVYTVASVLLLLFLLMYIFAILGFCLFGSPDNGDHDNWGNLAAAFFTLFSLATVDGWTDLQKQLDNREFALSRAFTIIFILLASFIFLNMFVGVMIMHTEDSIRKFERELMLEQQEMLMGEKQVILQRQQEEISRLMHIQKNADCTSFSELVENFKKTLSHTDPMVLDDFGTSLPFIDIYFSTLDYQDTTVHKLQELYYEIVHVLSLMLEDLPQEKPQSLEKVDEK
Sequence of CatSper (Q7RTX7 whole entry, the tested form may be a part): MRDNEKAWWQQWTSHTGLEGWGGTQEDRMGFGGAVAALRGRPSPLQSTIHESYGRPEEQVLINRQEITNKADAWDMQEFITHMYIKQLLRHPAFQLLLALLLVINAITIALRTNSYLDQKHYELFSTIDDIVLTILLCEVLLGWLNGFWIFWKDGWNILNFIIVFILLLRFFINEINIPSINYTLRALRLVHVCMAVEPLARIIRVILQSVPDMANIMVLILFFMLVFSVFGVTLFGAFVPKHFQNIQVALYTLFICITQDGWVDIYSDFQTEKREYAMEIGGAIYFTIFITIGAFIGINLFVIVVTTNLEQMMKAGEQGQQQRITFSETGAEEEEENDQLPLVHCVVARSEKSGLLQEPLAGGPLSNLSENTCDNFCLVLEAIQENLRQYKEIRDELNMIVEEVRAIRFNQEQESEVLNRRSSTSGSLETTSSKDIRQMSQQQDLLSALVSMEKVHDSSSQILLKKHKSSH

Compound: CCCCC/C=C\C/C=C\C/C=C\C/C=C\CCCC(=O)OCC(O)CO (centres unmarked) [1AG, 1-arachidonoylglycerol]
- whole-cell patch clamp of human spermatozoa [1]: whereas 1AG and 2AG (AGs) inhibited ICatSper

Compound: CCCCC/C=C\C/C=C\C/C=C\C/C=C\CCCC(=O)OC(CO)CO [2AG, 2-arachidonoylglycerol]
- monoacylglycerol hydrolysis by recombinant ABHD2 (free glycerol production) with [2]: ABHD2, which metabolizes endocannabinoids 1AG and 2AG only in the presence of progesterone
